{"source": "patent US6267972A", "about": "“Cosmetic/pharmaceutical compositions comprising β-adrenergic agonists/substance P antagonists” (Societe L'Oreal S.A., priority 1995, dated 2001)", "key": {"[1]": {"tested_on": "substance P", "assay": "In vivo functional test, neurogenic inflammation model: antidromic stimulation of the saphenous nerve, Evans blue tissular extravasation", "source_text": "The test entailed creating a neurogenic inflammation by the antidromic stimulation of the saphenous nerve in the anaesthetized animal. This nerve innervates the cutaneous regions of the hind paws. The stimulation causes the release from the nerve endings of substance P, which is partially responsible for the neurogenic inflammation. The neurogenic inflammation was quantified by measuring the tissular permeability with Evans blue, a marker for the tissular extravasation of plasma albumin which occurs during inflammation. This reference model was used in the in vivo search for substance P antagonists. […] Dose Effect of Salbutamol in the Antidromic Stimulation Model Presented in Example 1"}, "[2]": {"tested_on": "sensitive skins", "assay": "Test with capsaicin: topical application of capsaicin cream, appearance of subjective signs", "type": "in vivo, human", "conditions": "0.05 ml cream with 0.075% capsaicin on approx. 4 cm^2 of skin; subjects with sensitive skins", "method": "In order to determine if a skin is sensitive or not, the assignee hereof has also developed a test.\nThe test with capsaicin entails topically applying,. to approximately 4 cm^2 of skin, 0.05 ml of a cream comprising 0.075% of capsaicin and in noting the appearance of subjective signs caused by this application, such as smarting, burning sensations and itching."}, "[3]": {"conditions": "1 μmol, Table I, mean of 8 experiments, p < 0.001"}}, "note": "Structures can show the parent of a compound that is named as a salt.", "data": [{"compound": "Spantide II", "values": [{"measurement": "% of inhibition", "setting": "[1]; 30 nmol, Table I, mean of 8 experiments, p < 0.01", "value": 59, "unit": "%"}, {"measurement": "% of inhibition", "setting": "[1]; Table II, dose 30 nmol, p < 0.01", "value": 67, "unit": "%"}]}, {"compound": "CC(CCc1ccccc1)NC(C)C(O)c1ccc(O)cc1", "note": "(centres unmarked) [Nylidrin.HCl]", "values": [{"measurement": "% of inhibition", "setting": "[1]; [3]", "value": 95, "unit": "%"}]}, {"compound": "CC(C)NCC(O)c1ccc(O)c(O)c1", "note": "(centres unmarked) [Isoproterenol]", "values": [{"measurement": "% of inhibition", "setting": "[1]; [3]", "value": 100, "unit": "%"}]}, {"compound": "CC(C)(C)NCC(O)COc1cccc2[nH]c(=O)[nH]c12", "note": "(centres unmarked) [CGP12177.HCl]", "values": [{"measurement": "% of inhibition", "setting": "[1]; [3]", "value": 77, "unit": "%"}, {"measurement": "Concentration (μg/ml of Evans blue)", "setting": "[1]; 1 μmol, mean of 8 experiments, expressed as Evans blue, n.d.: not detected, control 5.98 ± 0.65", "value": "1.37 ± 0.32", "unit": "µg/mL"}]}, {"compound": "CC(C)(C)NCC(O)c1ccc(O)c(CO)c1", "note": "(centres unmarked) [Salbutamol]", "values": [{"measurement": "% of inhibition", "setting": "[1]; [3]", "value": 100, "unit": "%"}, {"measurement": "activity with respect to the release of substance P, dose dependence", "setting": "[1]; 0.1 to 100 nmol", "value": "dose dependent"}, {"measurement": "% of inhibition", "setting": "[1]; Table II, dose 0.1 nmol, n.s. (not significant)", "value": 17, "unit": "%"}, {"measurement": "% of inhibition", "setting": "[1]; Table II, dose 1 nmol, p < 0.05", "value": 65, "unit": "%"}, {"measurement": "% of inhibition", "setting": "[1]; Table II, dose 10 nmol, p < 0.01", "value": 80, "unit": "%"}, {"measurement": "% of inhibition", "setting": "[1]; Table II, dose 100 nmol, p < 0.01", "value": 100, "unit": "%"}, {"measurement": "activity relative to that of the reference molecule, Spantide II", "setting": "[1]; antidromic stimulation model", "value": "approximately 30 times"}]}, {"compound": "COc1cc(CNC(=O)CCCC/C=C/C(C)C)ccc1O", "note": "[capsaicin]", "values": [{"measurement": "erythema following subjective signs", "setting": "[2]", "value": "followed by the appearance of an erythema"}]}]}
